Key:
[1] = system: S. aureus; experiment: Microbiome balance model, S. epidermidis/S. aureus co-culture: S. aureus; type: cell-based, Staphylococcus aureus; conditions: co-culture with S. epidermidis
Procedure: (§1) The term ‘share’ as used herein refers to the share of each (individual) microbe, based on the total number of microbes in the respective group of microbes in % (i.e. the at least two, preferably all dry or sebaceous skin microbes as defined herein, respectively S. epidermidis and ), either before or after inoculation (as indicated). The share is calculated using the colony count of the respective (individual) microbe divided by the sum of the colony counts of all microbes of the respective microbiota * 100%.
(§2) 5 mL of TSB (Tryptic Say Broth) to which no (Ref.1) or 500 µL of 2 wt.-% of 1,3-propanediol (1,3-PDO) in PBS (Phosphate-buffered saline) have been added. Then this solutions have been inoculated by 500 µL of the respective calibrated mixture of the microbes as outlined below. Directly after inoculation and/or after 4 hours of incubation at 37° C., 100 µL have been taken and plated on an Agar gel petri dish. The microbes have then been counted based on the colony specific morphology and/or size.
(§3) All shares have been rounded.

[2] = system: C.simulans; experiment: Microbiome balance model, sebaceous skin mixture: C. simulans; type: cell-based, Corynebacterium simulans; conditions: 4 h at 37° C.
Procedure: (§4) Thus, in particular the term ‘by not unproportionally affecting the growth of anyone thereof’ refers to a balancing of at least two, preferably all dry skin or sebaceous skin microbes as defined herein in the mutual presence thereof, wherein only small changes in the difference in the (individual) shares of the microbes compared to the corresponding shares of the control are observed. Preferably, the small changes in the (individual) share (after 4 h of incubation at 37° C.) is less than ±15%, in particular less than ±10%, most in particular less than ±7.5%, compared to the control. Said change in the share is calculated as: share of the respective microbe within the group of at least two, preferably all microbes of dry or sebaceous skin in the presence of 1,3-PDO [%] minus share of the same microbe within the same group of microbes in the absence of 1,3-PDO [%], both after 4 h of incubation at 37° C. as illustrated in the example.
(§5) The ‘not unproportionally affected growth’ can also be assessed by determining an overall impact value, by • (1) assessing the impact of the ingredient on the individual microbe (i) and assigning an individual impact value x′(i) to said microbe as outlined below: • [formula] • If x(i) is • a) ≤ 0.1 then an integer x′(i) of 1 is assigned (no impact) • b) >0.1 ≤ 0.5then an integer x′(i) of 2 is assigned (slight impact) • c) > 0.5 then an integer x′(i) of 3 is assigned (significant impact), followed by • (2) assessing the overall effect of the ingredient on the respective microbiome by calculating the overall impact value y with formula (II) • [formula] • with n being the total number of microbes in the respective microbiota, wherein a good balancing is characterized by an overall impact value y of less than 2, preferably less than 1.75, most preferably less than 1.7.
as §2, §3

[3] = system: S. epidermidis; experiment: Microbiome balance model, S. epidermidis/S. aureus co-culture: S. epidermidis; type: cell-based, Staphylococcus epidermidis; conditions: co-culture with S. aureus
Procedure: as §1, §2, §3

[4] = system: S. epidermidis; experiment: Microbiome balance model, sebaceous skin mixture: S. epidermidis; type: cell-based, Staphylococcus epidermidis; conditions: 4 h at 37° C.
Procedure: as §4, §5, §2, §3

[5] = system: microbes of sebaceous skin; experiment: Microbiome balance model, sebaceous skin mixture: total of all microbes; type: cell-based; conditions: 4 h at 37° C.
Procedure: Preferably, the difference in total number of said at least two, preferably all microbes, compared to the respective total number in the absence of 1,3-propanediol (i.e. the control), after 4 h of incubation at 37° C., is within a range of ±50%, preferably ±40%, more preferably ±15%, most preferably ±10%.
as §5, §2, §3

[6] = system: S. mitis; experiment: Microbiome balance model, sebaceous skin mixture: S. mitis; type: cell-based, Streptococcus mitis; conditions: 4 h at 37° C.
Procedure: as §4, §5, §2, §3

[7] = system: S. hominis; experiment: Microbiome balance model, sebaceous skin mixture: S. hominis; type: cell-based, Staphylococcus hominis; conditions: 4 h at 37° C.
Procedure: as §4, §5, §2, §3

[8] = system: C. acnes; experiment: Microbiome balance model, sebaceous skin mixture: C. acnes; type: cell-based, Cutibacterium acnes; conditions: 4 h at 37° C.
Procedure: as §4, §5, §2, §3

[9] = system: S. capitis; experiment: Microbiome balance model, sebaceous skin mixture: S. capitis; type: cell-based, Staphylococcus capitis; conditions: 4 h at 37° C.
Procedure: as §4, §5, §2, §3

[10] = system: M. globosa; experiment: Microbiome balance model, sebaceous skin mixture: M. globosa; type: cell-based, Malassezia globosa; conditions: 4 h at 37° C.
Procedure: as §4, §5, §2, §3

[11] = after 4 hours of incubation at 37° C.
[12] = directly after inoculation, 500 µL of 2 wt.-% in PBS in 5 mL TSB

## CCCC(O)CO (stereo not shown) [pentylene glycol, 1,2-pentanediol, reference compound]
[1]; 4 hours of incubation
  share of S. aureus, effect in words: not reduced
[1]; [11]
  CSA4h counts of colony of S. aureus: 3900 CFU/ml
  CSA4h share of S. aureus: 45%
[1]; directly after inoculation
  CSA0 share of S. aureus: 20%
[1]; [12]
  CSA0 counts of colony of S. aureus: 280 CFU/ml
[2]
  C.simulans change in share vs control: -3%^1
  C.simulans counts of colony: 450 CFU/ml
  C.simulans share: 4%
  C.simulans valuation, impact value x(i)′: 2^3 (>0.1 ≤ 0.5then an integer x′(i) of 2 is assigned (slight impact))
[3]; [11]
  CSE4h counts of colony of S. epidermidis: 3200 CFU/ml
  CSE4h share of S. epidermidis: 55%
[3]; directly after inoculation
  CSE0 share of S. epidermidis: 80%
[3]; [12]
  CSE0 counts of colony of S. epidermidis: 1100 CFU/ml
[4]
  S. epidermidis change in share vs control: +17%^1
  S. epidermidis counts of colony: 3300 CFU/ml
  S. epidermidis share: 32%
  S. epidermidis valuation, impact value x(i)′: 3^3 (> 0.5 then an integer x′(i) of 3 is assigned (significant impact))
[5]
  Change of total CFU/ml vs control: +2.60%^2
  Total counts of colony: 10160 CFU/ml
  Total share: 100%
  overall impact value y: 2.4^4
[5]; in contrast to 1,3-propanediol
  share of the microbes of sebaceous skin, effect in words: alter the share of the microbes of sebaceous skin to a greater extend
[6]
  S. mitis change in share vs control: +0.5%^1
  S. mitis counts of colony: 380 CFU/ml
  S. mitis share: 4%
  S. mitis valuation, impact value x(i)′: 2^3 (>0.1 ≤ 0.5then an integer x′(i) of 2 is assigned (slight impact))
[7]
  S. hominis counts of colony: 2100 CFU/ml
  S. hominis share: 21%
  S. hominis valuation, impact value x(i)′: 2^3 (>0.1 ≤ 0.5then an integer x′(i) of 2 is assigned (slight impact))
[8]
  C. acnes change in share vs control: -19.5%^1
  C. acnes counts of colony: 2000 CFU/ml
  C. acnes share: 20%
  C. acnes valuation, impact value x(i)′: 3^3 (> 0.5 then an integer x′(i) of 3 is assigned (significant impact))
[9]
  S. capitis counts of colony: 1100 CFU/ml
  S. capitis share: 11%
  S. capitis valuation, impact value x(i)′: 3^3 (> 0.5 then an integer x′(i) of 3 is assigned (significant impact))
[10]
  M. globosa change in share vs control: +1%^1
  M. globosa counts of colony: 830 CFU/ml
  M. globosa share: 8%
  M. globosa valuation, impact value x(i)′: 2^3 (>0.1 ≤ 0.5then an integer x′(i) of 2 is assigned (slight impact))

From patent publication US20230301885A1, “NOVEL USE” (DSM IP ASSETS B.V., priority 2020, published 2023)
